{"source": "PubChem BioAssay AID256", "about": "(DTP/NCI, 2004)", "test_system": "CD2F1 mice, L1210 leukemia ip, survival T/C", "test": "NCI In Vivo Anticancer Drug Screen. Data for tumor model L1210 Leukemia (intraperitoneal) in CD2F1 (CDF1) mice", "conditions": "endpoint: median survival time, vehicle: water, higher = longer survival", "summary_of_the_method": "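Transplantable tumor in mice; compound-treated vs vehicle-treated groups. Read-out = treated/control ratio of the measured endpoint.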", "note": "“And” between values parts separate entries of the source, which are not always exact repeats. Identical values can stand only once. Toxic doses and inconclusive results are not listed."}
{"smiles": "NC(=O)c1csc(C2OC(CO)C(O)C2O)n1", "note": "(centres undefined)", "values": [{"measurement": "T/C", "setting": "dose: 93.75 mg/kg/injection, schedule: Q01DX005 (ip)", "result": "101 % of control"}, {"measurement": "T/C", "setting": "dose: 125.0 mg/kg/injection, schedule: Q01DX005 (ip)", "result": "168 % of control"}, {"measurement": "T/C", "setting": "dose: 128.0 mg/kg/injection, schedule: Q01DX001 (ip)", "result": "114 % of control"}, {"measurement": "T/C", "setting": "dose: 128.0 mg/kg/injection, schedule: Q01DX001 (oral)", "result": "123 % of control"}, {"measurement": "T/C", "setting": "dose: 128.0 mg/kg/injection, schedule: Q01DX005 (ip)", "result": "164 % of control"}, {"measurement": "T/C", "setting": "dose: 128.0 mg/kg/injection, schedule: Q01DX005 (iv)", "result": "166 % of control"}, {"measurement": "T/C", "setting": "dose: 128.0 mg/kg/injection, schedule: Q01DX005 (oral)", "result": "163 % of control"}, {"measurement": "T/C", "setting": "dose: 128.0 mg/kg/injection, schedule: Q01DX009 (oral)", "result": "217 % of control"}, {"measurement": "T/C", "setting": "dose: 128.0 mg/kg/injection, schedule: Q03HX024 (ip)", "result": "231 % of control"}, {"measurement": "T/C", "setting": "dose: 128.0 mg/kg/injection, schedule: Q04DX003 (ip)", "result": "118 % of control"}, {"measurement": "T/C", "setting": "dose: 128.0 mg/kg/injection, schedule: Q#A X018 (ip)", "result": "240 % of control"}, {"measurement": "T/C", "setting": "dose: 150.0 mg/kg/injection, schedule: Q01DX005 (ip)", "result": "157 % of control"}, {"measurement": "T/C", "setting": "dose: 178.0 mg/kg/injection, schedule: Q01DX005 (ip)", "result": "98 % of control"}, {"measurement": "T/C", "setting": "dose: 250.0 mg/kg/injection, schedule: Q01DX005 (ip)", "result": "158 % of control and 179 % of control"}, {"measurement": "T/C", "setting": "dose: 256.0 mg/kg/injection, schedule: Q01DX001 (ip)", "result": "117 % of control"}, {"measurement": "T/C", "setting": "dose: 256.0 mg/kg/injection, schedule: Q01DX001 (oral)", "result": "122 % of control"}, {"measurement": "T/C", "setting": "dose: 256.0 mg/kg/injection, schedule: Q01DX005 (ip)", "result": "183 % of control"}, {"measurement": "T/C", "setting": "dose: 256.0 mg/kg/injection, schedule: Q01DX005 (iv)", "result": "190 % of control"}, {"measurement": "T/C", "setting": "dose: 256.0 mg/kg/injection, schedule: Q01DX005 (oral)", "result": "188 % of control"}, {"measurement": "T/C", "setting": "dose: 256.0 mg/kg/injection, schedule: Q01DX009 (oral)", "result": "227 % of control"}, {"measurement": "T/C", "setting": "dose: 256.0 mg/kg/injection, schedule: Q03HX024 (ip)", "result": "246 % of control"}, {"measurement": "T/C", "setting": "dose: 256.0 mg/kg/injection, schedule: Q#A X018 (ip)", "result": "252 % of control"}, {"measurement": "T/C", "setting": "dose: 300.0 mg/kg/injection, schedule: Q01DX005 (ip)", "result": "166 % of control"}, {"measurement": "T/C", "setting": "dose: 356.0 mg/kg/injection, schedule: Q01DX005 (ip)", "result": "101 % of control"}, {"measurement": "T/C", "setting": "dose: 375.0 mg/kg/injection, schedule: Q01DX005 (ip)", "result": "92 % of control"}, {"measurement": "T/C", "setting": "dose: 500.0 mg/kg/injection, schedule: Q01DX005 (ip)", "result": "175 % of control and 201 % of control"}, {"measurement": "T/C", "setting": "dose: 512.0 mg/kg/injection, schedule: Q01DX005 (ip)", "result": "190 % of control"}, {"measurement": "T/C", "setting": "dose: 512.0 mg/kg/injection, schedule: Q01DX005 (iv)", "result": "217 % of control"}, {"measurement": "T/C", "setting": "dose: 512.0 mg/kg/injection, schedule: Q01DX005 (oral)", "result": "195 % of control"}, {"measurement": "T/C", "setting": "dose: 512.0 mg/kg/injection, schedule: Q01DX009 (oral)", "result": "154 % of control"}, {"measurement": "T/C", "setting": "dose: 512.0 mg/kg/injection, schedule: Q03HX024 (ip)", "result": "284 % of control"}, {"measurement": "T/C", "setting": "dose: 512.0 mg/kg/injection, schedule: Q04DX003 (ip)", "result": "180 % of control"}, {"measurement": "T/C", "setting": "dose: 512.0 mg/kg/injection, schedule: Q#A X018 (ip)", "result": "269 % of control"}, {"measurement": "T/C", "setting": "dose: 600.0 mg/kg/injection, schedule: Q01DX005 (ip)", "result": "188 % of control"}, {"measurement": "T/C", "setting": "dose: 1000.0 mg/kg/injection, schedule: Q01DX005 (ip)", "result": "188 % of control and 191 % of control"}, {"measurement": "T/C", "setting": "dose: 1024.0 mg/kg/injection, schedule: Q01DX005 (ip)", "result": "205 % of control"}, {"measurement": "T/C", "setting": "dose: 1024.0 mg/kg/injection, schedule: Q01DX005 (iv)", "result": "226 % of control"}, {"measurement": "T/C", "setting": "dose: 1024.0 mg/kg/injection, schedule: Q01DX005 (oral)", "result": "213 % of control"}, {"measurement": "T/C", "setting": "dose: 1024.0 mg/kg/injection, schedule: Q01DX009 (oral)", "result": "110 % of control"}, {"measurement": "T/C", "setting": "dose: 1024.0 mg/kg/injection, schedule: Q04DX003 (ip)", "result": "191 % of control"}, {"measurement": "T/C", "setting": "dose: 2048.0 mg/kg/injection, schedule: Q01DX001 (oral)", "result": "155 % of control"}, {"measurement": "T/C", "setting": "dose: 2048.0 mg/kg/injection, schedule: Q01DX005 (oral)", "result": "98 % of control"}, {"measurement": "T/C", "setting": "dose: 2048.0 mg/kg/injection, schedule: Q01DX009 (ip)", "result": "109 % of control"}, {"measurement": "T/C", "setting": "dose: 2048.0 mg/kg/injection, schedule: Q04DX003 (ip)", "result": "223 % of control"}]}
